Measured values reported in publication PMC2818863 (Bioorganic & medicinal chemistry, 2009).

Assays:
Assay type in all cases: biochemical
PLAP = PLAP (Homo sapiens, UniProt P05187); assay: PLAP luminescent assay; details: for IC50: PLAP potency (IC50), mean ± SD of three experiments, CDP-star 85 μM
IAP = biological target: T1, IAP (Homo sapiens, UniProt P09923); assay: IAP luminescent assay; details: ratio IC50 IAP / IC50 PLAP
T1 sequence (P09923 20-503 limits assumed): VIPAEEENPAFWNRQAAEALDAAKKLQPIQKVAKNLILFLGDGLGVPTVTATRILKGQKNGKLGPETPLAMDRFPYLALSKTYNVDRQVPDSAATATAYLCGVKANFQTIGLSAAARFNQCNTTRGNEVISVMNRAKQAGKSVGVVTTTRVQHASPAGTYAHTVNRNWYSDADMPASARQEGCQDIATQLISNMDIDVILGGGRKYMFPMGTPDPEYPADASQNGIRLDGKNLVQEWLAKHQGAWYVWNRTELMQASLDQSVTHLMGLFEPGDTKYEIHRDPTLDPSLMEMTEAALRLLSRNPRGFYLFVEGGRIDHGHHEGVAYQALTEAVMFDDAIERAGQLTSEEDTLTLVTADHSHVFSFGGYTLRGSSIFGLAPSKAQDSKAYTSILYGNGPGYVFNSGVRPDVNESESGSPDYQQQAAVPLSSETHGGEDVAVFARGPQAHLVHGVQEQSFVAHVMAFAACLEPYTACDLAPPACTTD

GCAP = GCAP (Homo sapiens, UniProt P10696); assay: GCAP luminescent assay; details: ratio IC50 GCAP / IC50 PLAP; for 12, 13, 20 from the separate-occasion values
TNAP = biological target: T2, TNAP (Homo sapiens, UniProt P05186); assay: TNAP luminescent assay; details: ratio IC50 TNAP / IC50 PLAP
T2 sequence (P05186 18-502 limits assumed): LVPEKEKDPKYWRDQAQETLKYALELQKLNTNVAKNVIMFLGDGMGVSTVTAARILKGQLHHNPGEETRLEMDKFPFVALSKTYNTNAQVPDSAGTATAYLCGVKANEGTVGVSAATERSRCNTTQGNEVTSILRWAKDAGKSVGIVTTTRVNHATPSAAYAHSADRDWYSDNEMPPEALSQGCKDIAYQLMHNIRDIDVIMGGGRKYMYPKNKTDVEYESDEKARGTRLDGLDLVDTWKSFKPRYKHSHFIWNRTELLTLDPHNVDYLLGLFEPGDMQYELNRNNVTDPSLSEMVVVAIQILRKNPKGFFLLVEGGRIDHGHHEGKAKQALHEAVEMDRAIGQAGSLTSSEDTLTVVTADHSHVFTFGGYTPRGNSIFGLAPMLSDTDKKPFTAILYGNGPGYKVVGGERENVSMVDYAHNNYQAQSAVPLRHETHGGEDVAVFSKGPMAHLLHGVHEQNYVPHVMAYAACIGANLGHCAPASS

Chain of PLAP (P05187 23-506 limits assumed): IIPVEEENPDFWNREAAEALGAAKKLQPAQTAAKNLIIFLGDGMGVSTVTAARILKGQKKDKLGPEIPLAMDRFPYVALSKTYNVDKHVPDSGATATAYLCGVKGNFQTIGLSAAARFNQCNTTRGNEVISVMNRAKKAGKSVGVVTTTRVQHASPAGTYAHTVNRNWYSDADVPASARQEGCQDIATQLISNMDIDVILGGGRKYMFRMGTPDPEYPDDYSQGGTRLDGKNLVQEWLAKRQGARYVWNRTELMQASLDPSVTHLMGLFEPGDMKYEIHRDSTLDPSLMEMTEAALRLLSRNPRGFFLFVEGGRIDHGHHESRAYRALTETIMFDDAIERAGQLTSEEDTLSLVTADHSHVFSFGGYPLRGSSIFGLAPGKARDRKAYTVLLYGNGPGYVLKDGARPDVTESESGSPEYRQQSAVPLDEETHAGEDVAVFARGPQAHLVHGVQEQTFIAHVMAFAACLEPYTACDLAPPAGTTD
Chain of GCAP (P10696 20-503 limits assumed): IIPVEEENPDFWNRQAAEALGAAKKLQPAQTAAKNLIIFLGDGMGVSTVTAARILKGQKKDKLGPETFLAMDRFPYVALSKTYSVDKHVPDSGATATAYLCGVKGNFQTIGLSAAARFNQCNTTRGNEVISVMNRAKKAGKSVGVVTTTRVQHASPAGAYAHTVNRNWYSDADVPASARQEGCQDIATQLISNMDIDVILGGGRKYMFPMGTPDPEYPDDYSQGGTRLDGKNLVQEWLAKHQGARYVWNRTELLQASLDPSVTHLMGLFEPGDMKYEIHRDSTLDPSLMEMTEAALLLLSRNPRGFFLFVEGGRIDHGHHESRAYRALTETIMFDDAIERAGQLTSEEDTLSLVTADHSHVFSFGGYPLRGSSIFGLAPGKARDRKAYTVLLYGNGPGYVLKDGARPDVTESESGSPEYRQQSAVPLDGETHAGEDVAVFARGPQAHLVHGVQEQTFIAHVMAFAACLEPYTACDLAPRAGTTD

Cc1cc(C)nc(SCC(=O)c2ccc(O)cc2)n1 [Compound 3] was tested, and the IC50 (PLAP) was > 100 µM and the “PLAP inhibitory potency at 100 μM” value (PLAP) was “no PLAP inhibitory potency”.
Cc1cc(C)nc(SCC(=O)c2cccc(O)c2)n1 [Compound 4] was tested, and the IC50 (PLAP) was > 100 µM and the “PLAP inhibitory potency at 100 μM” value (PLAP) was “no PLAP inhibitory potency”.
COc1cc(C(=O)CSc2nc(C)cc(C)n2)ccc1O [Compound 5] was tested, and the IC50 (PLAP) was > 100 µM and the “PLAP inhibitory potency at 100 μM” value (PLAP) was “no PLAP inhibitory potency”.
With Cc1cc(C)nc(SCC(=O)c2ccc3c(c2)OCO3)n1 [Compound 6] the IC50 (PLAP) was > 100 µM and the “PLAP inhibitory potency at 100 μM” value (PLAP) was “no PLAP inhibitory potency”.
With COc1ccc(C(=O)CSc2nc(C)cc(C)n2)cc1 [Compound 7] the IC50 (PLAP) was > 100 µM and the “PLAP inhibitory potency at 100 μM” value (PLAP) was “no PLAP inhibitory potency”.
O=C(Cn1ccnc1)c1ccc(O)c(O)c1 [Compound 8] showed an IC50 (PLAP) of ~3 µM.
For Cc1cnn(CC(=O)c2ccc(O)c(O)c2)c1 [Compound 10], the “Selectivity (IAP/PLAP)” value (IAP) was > 25 fold and the IC50 (PLAP) was 2.7 ± 0.1 µM.
Molecule Cc1nccn1CC(=O)c1ccc(O)c(O)c1 [Compound 12] has an IC50 (PLAP) of 3.3 ± 0.2 µM.
For CCc1nccn1CC(=O)c1ccc(O)c(O)c1 [Compound 13], the IC50 (PLAP) was ~3 µM and the “Selectivity (GCAP/PLAP)” value (GCAP) was “^* (2.1)”.
In the case of Cc1cc2ncn(CC(=O)c3ccc(O)c(O)c3)c2cc1C [Compound 18], the “Selectivity (TNAP/PLAP)” value (TNAP) is reported as > 17 fold.
Cc1nc(Br)cn1CC(=O)c1ccc(O)c(O)c1 [Compound 19] was tested, and the “increase in PLAP inhibitory potency” value (PLAP; 19 relative to 16) was 3 fold and the IC50 (PLAP) was 4.9 ± 0.6 µM.
Cc1cc(C(=O)NCc2ccc(O)c(O)c2)oc1C [Compound 25] was tested, and the IC50 (PLAP) was > 100 µM.
Cc1cc(C(=O)NCCc2ccc(O)c(O)c2)oc1C [Compound 26] was tested, and the IC50 (PLAP) was > 100 µM.
For O=C(CSc1nnc(-c2ccccc2)[nH]1)c1ccc(O)c(O)c1 [Compound 28], the IC50 (PLAP) was > 100 µM.
Cn1c(SCC(=O)c2ccccc2)nnc1-c1cccc(N)c1 [Compound 29] was tested, and the IC50 (PLAP) was > 100 µM.
For COc1ccc(-n2nnnc2SCC(=O)c2ccc(O)c(O)c2)cc1 [Compound 32], the IC50 (PLAP) was 2 ± 0.1 µM.
